#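 Following 48 hours of exposure in 96-well plates, responses at five concentrations were used to interpolate endpoints linearly. GI50 is the concentration that inhibits growth by half. The concentration for full growth arrest is given as TGI.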
# Tests used:
# Assay in all cases: growth of human tumour cells (NCI), 48 h
# [1] = system: RXF 393 renal
# [2] = system: BT-549 breast
# [3] = system: LOX IMVI melanoma
# [4] = system: NCI-H522 lung
# [5] = system: OVCAR-5 ovarian
# [6] = system: COLO 205 colon
# [7] = system: SK-MEL-5 melanoma
# [8] = system: 786-0 renal
# [9] = system: TK-10 renal
# [10] = system: IGROV1 ovarian
# [11] = system: SN12C renal
# [12] = system: OVCAR-8 ovarian
# [13] = system: CAKI-1 renal
# [14] = system: KM12 colon
# [15] = system: SR leukemia
# [16] = system: UACC-62 melanoma
# [17] = system: K-562 leukemia
# [18] = system: MALME-3M melanoma
# [19] = system: U251 CNS
# [20] = system: A549 NSCLC
# [21] = system: PC-3 prostate
# [22] = system: ACHN renal
# [23] = system: CCRF-CEM leukemia
# [24] = system: MCF7 breast
# [25] = system: UACC-257 melanoma
# [26] = system: DU-145 prostate
# [27] = system: SF-539 CNS
# [28] = system: NCI-H226 lung
# [29] = system: HOP-92 NSCLC
# [30] = system: M14 melanoma
# [31] = system: MDA-MB-231 breast
# [32] = system: MDA-MB-435
# [33] = system: NCI/ADR-RES ovarian
# [34] = system: UO-31 renal
# [35] = system: SK-MEL-28 melanoma
# [36] = system: SF-295 CNS
# [37] = system: EKVX NSCLC
# [38] = system: SK-OV-3 ovarian
# [39] = system: NCI-H460 lung
# [40] = system: A498 renal
# [41] = system: HCC-2998 colon
# [42] = system: SNB-19 CNS
# [43] = system: HOP-62 NSCLC
# [44] = system: SF-268 CNS
# [45] = system: OVCAR-4 ovarian
# [46] = system: HCT-116 colon
# [47] = system: OVCAR-3 ovarian
# [48] = system: SW-620 colon
# [49] = system: NCI-H23 lung
# [50] = system: SNB-75 CNS
# [51] = system: HCT-15 colon
# [52] = system: HS 578T breast
# [53] = system: MOLT-4 leukemia
smiles,measurement,setting,value
Clc1nc(Cl)c2ncn(CCOCCn3cnc4c(Cl)nc(Cl)nc43)c2n1,GI50,[1],0.222 µM
same,TGI,[1],0.474 µM
same,GI50,[2],0.208 µM
same,TGI,[2],0.392 µM
same,GI50,[3],0.185 µM
same,TGI,[3],0.35 µM
same,GI50,[4],0.684 µM
same,TGI,[4],2.22 µM
same,GI50,[5],0.227 µM
same,TGI,[5],0.51 µM
same,GI50,[6],0.204 µM
same,TGI,[6],0.374 µM
same,GI50,[7],0.37 µM
same,TGI,[7],1.38 µM
same,GI50,[8],0.325 µM
same,TGI,[8],0.935 µM
same,GI50,[9],0.772 µM
same,TGI,[9],1.71 µM
same,GI50,[10],0.207 µM
same,TGI,[10],0.408 µM
same,GI50,[11],0.214 µM
same,TGI,[11],0.433 µM
same,GI50,[12],0.228 µM
same,TGI,[12],0.486 µM
same,GI50,[13],0.197 µM
same,TGI,[13],0.453 µM
same,GI50,[14],0.236 µM
same,TGI,[14],0.491 µM
same,GI50,[15],0.241 µM
same,TGI,[15],54.4 µM
same,GI50,[16],0.198 µM
same,TGI,[16],0.412 µM
same,GI50,[17],0.361 µM
same,TGI,[17],> 100 µM
same,GI50,[18],0.221 µM
same,TGI,[18],0.464 µM
same,GI50,[19],0.174 µM
same,TGI,[19],0.313 µM
same,GI50,[20],0.312 µM
same,TGI,[20],1.3 µM
same,GI50,[21],0.188 µM
same,TGI,[21],0.365 µM
same,GI50,[22],0.328 µM
same,TGI,[22],0.811 µM
same,GI50,[23],0.226 µM
same,GI50,[24],0.192 µM
same,TGI,[24],0.455 µM
same,GI50,[25],0.235 µM
same,TGI,[25],0.488 µM
same,GI50,[26],0.196 µM
same,TGI,[26],0.343 µM
same,GI50,[27],0.17 µM
same,TGI,[27],0.381 µM
same,GI50,[28],1.56 µM
same,TGI,[28],3.2 µM
same,GI50,[29],0.2 µM
same,TGI,[29],0.687 µM
same,GI50,[30],0.287 µM
same,TGI,[30],0.817 µM
same,GI50,[31],0.187 µM
same,TGI,[31],0.355 µM
same,GI50,[32],0.204 µM
same,TGI,[32],0.466 µM
same,GI50,[33],0.216 µM
same,TGI,[33],0.424 µM
same,GI50,[34],0.633 µM
same,TGI,[34],1.25 µM
same,GI50,[35],0.199 µM
same,TGI,[35],0.362 µM
same,GI50,[36],1.33 µM
same,TGI,[36],2.83 µM
same,GI50,[37],1.31 µM
same,TGI,[37],2.77 µM
same,GI50,[38],1.44 µM
same,TGI,[38],2.77 µM
same,GI50,[39],0.217 µM
same,TGI,[39],0.463 µM
same,GI50,[40],1.72 µM
same,TGI,[40],3.2 µM
same,GI50,[41],0.213 µM
same,TGI,[41],0.382 µM
same,GI50,[42],0.448 µM
same,TGI,[42],0.968 µM
same,GI50,[43],0.202 µM
same,TGI,[43],0.36 µM
same,GI50,[44],0.194 µM
same,TGI,[44],0.347 µM
same,GI50,[45],0.283 µM
same,TGI,[45],0.707 µM
same,GI50,[46],0.182 µM
same,TGI,[46],0.346 µM
same,GI50,[47],0.199 µM
same,TGI,[47],0.346 µM
same,GI50,[48],0.212 µM
same,TGI,[48],0.44 µM
same,GI50,[49],0.204 µM
same,TGI,[49],0.401 µM
same,GI50,[50],0.181 µM
same,TGI,[50],0.342 µM
same,GI50,[51],0.185 µM
same,TGI,[51],0.365 µM
same,GI50,[52],0.289 µM
same,TGI,[52],0.693 µM
same,GI50,[53],0.336 µM
same,TGI,[53],> 100 µM

# From PubChem BioAssay (NCI)
